Measured values: patent publication US10221129B2, “Inhibitors of human immunodeficiency virus replication” (ViiV HEALTHCARE UK (NO.5) LIMITED, priority 2015, dated 2019)
Where two headings read alike, the source gives them in different places.

What was measured:
[1] = tested on: recombinant NL4-3 virus (nef section replaced with Renilla luciferase gene) in MT-2 cells; assay: HIV cell culture assay (antiviral activity, luciferase readout); type: cell-based
Method: HIV cell culture assay—MT-2 cells, 293T cells and the proviral DNA clone of NL4-3 virus were obtained from the NIH AIDS Research and Reference Reagent Program. MT-2 cells were propagated in RPMI 1640 media supplemented with 10% heat inactivated fetal bovine serum (FBS), 100 jag/ml penicillin G and up to 100 units/mL streptomycin. The 293T cells were propagated in DMEM media supplemented with 10% heat inactivated FBS, 100 μg/mL penicillin G and 100 μg/mL streptomycin. A recombinant NL4-3 proviral clone, in which a section of the nef gene was replaced with the Renilla luciferase gene, was used to make the reference virus used in these studies. The recombinant virus was prepared through transfection of the recombinant NL4-3 proviral clone into 293T cells using Transit-293 Transfection Reagent from Mirus Bio LLC (Madison, Wis.). Supernatant was harvested after 2-3 days and the amount of virus present was titered in MT-2 cells using luciferase enzyme activity as a marker by measuring luciferase enzyme activity. Luciferase was quantitated using the EnduRen Live Cell Substrate from Promega (Madison, Wis.). Antiviral activities of compounds toward the recombinant virus were quantified by measuring luciferase activity in MT-2 cells infected for 4-5 days with the recombinant virus in the presence of serial dilutions of the compound.
(Johnson V A, Byington R T. Infectivity Assay. In Techniques in HIV Research. ed. Aldovini A, Walker B D. 71-76. New York: Stockton Press. 1990).

[2] = Compound cytotoxicity, XTT-based colorimetric assay; type: cell-based; conditions: human, uninfected MT2 cells, day 4, XTT
Method: Compound cytotoxicity and the corresponding CC50 values were determined using the same protocol as described in the antiviral assay except that uninfected cells were used. Cytotoxicity was assessed on day 4 in uninfected MT2 cells by using a XTT (2,3-bis[2-Methoxy-4-nitro-5-sulfophenyl]-2H-tetrazolium-5-carboxyanilide inner salt)-based colorimetric assay (Sigma-Aldrich, St Louis, Mo.).

[3] = Renilla, NL43, MT-2 cells infected for 4-5 days with recombinant NL4-3 Renilla luciferase virus

Row | Structure (SMILES) | EC50 [1, 3] [nM] | CC50 at 4 days [2] [nM] | EC50 ([1]; MT-2 cells infected for 4-5 days with recombinant NL4-3 Renilla luciferase virus) [nM] | EC50 ([1]; MT-2 cells infected for 4-5 days with recombinant NL4-3 Renilla luciferase virus, read-out: EC50) [nM]
1 | CN(C(=O)[C@H](Cc1cc(F)cc(F)c1)NC(=O)NS(=O)(=O)N1CCc2cccnc21)c1ccc(N2CCOCC2)cc1 [BB-3] | 340 | 68100 | – | –
2 | COc1ccc(N(C)C(=O)[C@H](Cc2ccccc2)NC(=O)NS(=O)(=O)N2CCc3cc(Cl)cc(Cl)c32)cc1 [CA-3] | 5720 | > 100000 | – | –
3 | COc1ccc(N(C)C(=O)[C@H](Cc2ccccc2)NC(=O)NS(=O)(=O)Nc2ccc3ncsc3c2)cc1 [CA-24] | 60 | > 100000 | – | –
4 | CN(C(=O)[C@H](Cc1cc(F)cc(F)c1)NC(=O)NS(=O)(=O)N1CCc2cccnc21)c1ccc2scnc2c1 [ZY-1] | 10 | > 100000 | – | –
5 | CCOc1ccc(N(CC)C(=O)[C@H](Cc2ccccc2)NC(=O)NS(=O)(=O)n2ccc3ccccc32)cc1 [JB-75] | 70 | > 33300 | – | –
6 | COc1ccc(N(C)C(=O)[C@H](Cc2ccccc2)NC(=O)NS(=O)(=O)NCc2nccn2C)cc1 [JB-63] | 6500 | > 100000 | – | –
7 | CN(C(=O)[C@H](Cc1cc(F)cc(F)c1)NC(=O)NS(=O)(=O)N1CCc2cccnc21)c1ccc(C2CC2)cc1 [GW-10] | 30 | 91000 | – | –
8 | COc1ccc(N(C)C(=O)[C@H](Cc2ccccc2)NC(=O)NS(=O)(=O)N2CCc3ccccc32)cc1 [JB-1] | 110 | > 100000 | – | –
9 | COc1ccc(N(C)C(=O)[C@H](Cc2ccccc2)NC(=O)NS(=O)(=O)N(C)c2ccc(OC)cc2)cc1 [JB-28] | 210 | > 100000 | – | –
10 | CN(C(=O)[C@H](Cc1cc(F)cc(F)c1)NC(=O)NS(=O)(=O)N1CCC(Cc2ccccc2)CC1)c1ccc2scnc2c1 [CA-133] | 720 | 86400 | – | –
11 | COc1ccc(N(C)C(=O)[C@H](Cc2ccccc2)NC(=O)NS(=O)(=O)Nc2ccc(Br)cc2)cc1 [CA-16] | 90 | > 100000 | – | –
12 | CCCc1ccc(N(C)C(=O)[C@H](Cc2cc(F)cc(F)c2)NC(=O)NS(=O)(=O)N2CCc3cccnc32)cc1 [BB-11] | 10 | 66300 | – | –
13 | COc1ccc(N(C)C(=O)[C@H](Cc2ccccc2)NC(=O)NS(=O)(=O)Nc2cccc3ccccc23)cc1 [CA-4] | 410 | 89400 | – | –
14 | COc1ccc(N(C)C(=O)[C@H](Cc2ccccc2)NC(=O)NS(=O)(=O)Nc2ccccc2-c2ccccc2)cc1 [CA-31] | 1170 | > 33300 | – | –
15 | COc1cccc(N(C)S(=O)(=O)NC(=O)N[C@@H](Cc2cc(F)cc(F)c2)C(=O)N(C)c2ccc3scnc3c2)c1 [CA-119] | 60 | > 33300 | – | –
16 | COc1ccc(N(C)C(=O)[C@H](Cc2ccccc2)NC(=O)NS(=O)(=O)Nc2cccc(C#N)c2)cc1 [CA-9] | 260 | > 100000 | – | –
17 | CN(C(=O)[C@H](Cc1cc(F)cc(F)c1)NC(=O)NS(=O)(=O)N1CCCC1c1ccccn1)c1ccc2scnc2c1 (single isomer, unassigned) [VN-1] | – | > 100000 | 2480 | –
18 | COc1ccc(N(C)C(=O)[C@H](Cc2ccccc2)NC(=O)NS(=O)(=O)Nc2ccc(C(C)C)cc2)cc1 [CA-21] | 80 | > 100000 | – | –
19 | CN(C(=O)[C@H](Cc1cc(F)cc(F)c1)NC(=O)NS(=O)(=O)N(C)C)c1ccc(OC(F)F)cc1 [BB-37] | 100 | > 100000 | – | –
20 | COc1ccc(N(C)C(=O)[C@H](Cc2ccccc2)NC(=O)NS(=O)(=O)Nc2cccc(Cl)c2)cc1 [JB-19] | 50 | > 100000 | – | –
21 | COc1ccc(N(C)C(=O)[C@H](Cc2ccccc2)NC(=O)NS(=O)(=O)N(C)c2cccc(C)c2)cc1 [JB-25] | 80 | > 100000 | – | –
22 | COc1ccc(N(C)C(=O)[C@H](Cc2ccccc2)NC(=O)NS(=O)(=O)NC(C)c2csc(C)n2)cc1 (some centres unmarked) [JB-64] | 680 | > 100000 | – | –

Row | Structure (SMILES) | EC50 [1, 3] [nM] | CC50 at 4 days [2] [nM] | EC50 ([1]; MT-2 cells infected for 4-5 days with recombinant NL4-3 Renilla luciferase virus) [nM] | EC50 ([1]; MT-2 cells infected for 4-5 days with recombinant NL4-3 Renilla luciferase virus, read-out: EC50) [nM]
23 | CCc1ccc(N(C)C(=O)[C@H](Cc2cc(F)cc(F)c2)NC(=O)NS(=O)(=O)N2CCc3cccnc32)cc1 [BB-2] | 20 | 96000 | – | –
24 | COc1ccc(N(C)C(=O)[C@H](Cc2ccccc2)NC(=O)NS(=O)(=O)NCc2cc(C)on2)cc1 [JB-59] | 1860 | > 100000 | – | –
25 | COc1ccc(N(C)C(=O)[C@H](Cc2ccccc2)NC(=O)NS(=O)(=O)Nc2ccc(Cc3ccncc3)cc2)cc1 [CA-39] | 330 | > 100000 | – | –
26 | COc1ccc(N(C)C(=O)[C@H](Cc2ccccc2)NC(=O)NS(=O)(=O)n2ncc3c(Cl)nc(Cl)cc32)cc1 [CA-66] | 14600 | > 100000 | – | –
27 | Cc1cc(N(C)C(=O)[C@H](Cc2cc(F)cc(F)c2)NC(=O)NS(=O)(=O)N2CCc3cccnc32)cnc1C [GW-20] | 230 | > 100000 | – | –
28 | COc1ccc(N(C)C(=O)[C@H](Cc2ccccc2)NC(=O)NS(=O)(=O)N(C)c2ccc(Cl)cc2)cc1 [JB-35] | 80 | > 100000 | – | –
29 | COc1ccc(N(C)C(=O)[C@H](Cc2ccccc2)NC(=O)NS(=O)(=O)Nc2ccc(NC(=O)N(C)C)cc2)cc1 [JB-52] | 5940 | > 100000 | – | –
30 | CN(C(=O)[C@H](Cc1cc(F)cc(F)c1)NC(=O)NS(=O)(=O)N1CCCCC1)c1ccc2scnc2c1 [VN-24] | 90 | > 100000 | – | –
31 | CC(C)NS(=O)(=O)NC(=O)N[C@@H](Cc1cc(F)cc(F)c1)C(=O)N(C)c1ccc2scnc2c1 [CA-136] | 60 | > 100000 | – | –
32 | COc1ccc(N(C)C(=O)[C@H](Cc2ccccc2)NC(=O)NS(=O)(=O)Nc2ccc(Cl)cc2Cl)cc1 [CA-50] | 110 | > 100000 | – | –
33 | CN(C(=O)[C@H](Cc1cc(F)cc(F)c1)NC(=O)NS(=O)(=O)N1CCc2cccc(F)c21)c1ccc2scnc2c1 [ZY-15] | 30 | > 33300 | – | –
34 | CN(C(=O)[C@H](Cc1cc(F)cc(F)c1)NC(=O)NS(=O)(=O)NCC(C)(C)C)c1ccc2scnc2c1 [CA-143] | 50 | > 100000 | – | –
35 | COC1CN(S(=O)(=O)NC(=O)N[C@@H](Cc2cc(F)cc(F)c2)C(=O)N(C)c2ccc3scnc3c2)C1 [CA-128] | 100 | > 100000 | – | –
36 | COc1ccc(N(C)C(=O)[C@H](Cc2ccccc2)NC(=O)NS(=O)(=O)N2CCCCC2c2ccccc2)cc1 (some centres unmarked) [JB-53] | 1100 | 85500 | – | –
37 | COc1ccc(N(C)C(=O)[C@H](Cc2ccccc2)NC(=O)NS(=O)(=O)Nc2cccc(OC(F)(F)F)c2)cc1 [CA-35] | 380 | 30300 | – | –
38 | COc1ccc(N(C)C(=O)[C@H](Cc2ccccc2)NC(=O)NS(=O)(=O)Nc2ccc(C#N)cc2)cc1 [CA-15] | 70 | > 100000 | – | –
39 | COc1ccc(N(C)C(=O)[C@H](Cc2ccccc2)NC(=O)NS(=O)(=O)n2c3ccccc3c3ccccc32)cc1 [JB-9] | 440 | 74200 | – | –
40 | COc1ccc(N(C)C(=O)[C@H](Cc2ccccc2)NC(=O)NS(=O)(=O)NCC(=O)N2CCN(c3ccccc3)CC2)cc1 [CA-58] | 7450 | > 100000 | – | –
41 | COc1ccc(N(C)C(=O)[C@H](Cc2ccccc2)NC(=O)NS(=O)(=O)Nc2cccnc2)cc1 [JB-21] | 1780 | > 100000 | – | –
42 | COc1ccc(NS(=O)(=O)NC(=O)N[C@@H](Cc2ccccc2)C(=O)N(C)c2ccc(OC)cc2)cc1 [JB-27] | 150 | > 100000 | – | –
43 | CC1CN(S(=O)(=O)NC(=O)N[C@@H](Cc2cc(F)cc(F)c2)C(=O)N(C)c2ccc3scnc3c2)c2ncccc21 (single isomer, unassigned) [VN-14] | – | > 100000 | – | –
44 | COc1ccc(N(C)C(=O)[C@H](Cc2ccccc2)NC(=O)NS(=O)(=O)NCc2n[nH]c3ccccc23)cc1 [JB-67] | – | – | – | 180
